“Also recorded” adds a separate entry of the source. Read-outs that look alike come from different tables or passages of the source.
Key:
[1] = Determination of acid dissociation constants K1 and K2 by spectrophotometric titration; format: physicochemical; details: μ = 0.1 (CsCl), aqueous
Procedure: A 50 ml aqueous solution containing the crown reagent of Example 5 (8.70×10^-5 M), hydrochloric acid (6×10^-4 M), and cesium chloride (0.1 M) was titrated with potassium hydroxide [0.1 M (below pH12), and 1 M (above pH12)], using a Metrohm automatic titrator, Dosimat E535 equipped with Potentiograph E536. The titration was interrupted in every 0.3-1.5 pH increase for the measurement of the absorption spectrum of the solution. A 3-4 ml portion of the solution was taken to a cuvette, the spectrum was recorded on a Hewlett-Packard 8450A spectrometer, and the solution was returned to the titration vessel using a pipet. The magnitude of the spectrum was corrected in order to adjust for dilution upon titration, and corrected results shown in FIG. 1.
[formula] where K1 and K2 denote the acid dissociation constants, and KML a complex formation constant. By assuming no significant complex-formation, an absorbance A at any wavelength and the total concentration of the reagent [HL]t are written as
A=εHLH.spsb.+ [HLH^+ ]+εHL
[HL]+εLL.spsb.- [L^- ] (4)
[HL]t =[HLH^ […] ]+[HL]+[L^- ] (5)
where ε's are molar absorption coefficients. […]
At 342.8 nm and at pH ≥9.7, the absorbance deviating from the isosbestic point reflects the decay of HL and the growth of L-, so that these absorbance data can be used for the evaluation of -logK2 using Eq. (7). […]

[2] = Determination of extraction constant KML^ex, lithium ion; format: physicochemical; details: for -log K^ex LiL (extraction constant): solvent chloroform
Description: (§1) Extraction equilibria are illustrated in FIG. 2 and in the following equation: [formula] where [M^+ ]t denotes a total alkali metal concentration. By assuming [L^-a ]>>[HLa ]+[MLa ], and [M^+ ]t >>[HL]t,
(§2) [HL]t =[HLo ]+[MLo ]+[L^-a ] (12)
(§3) Combining Eq. (8), (11), (12), and (13) gives [formula] where Δε=εMLo -εHLo, and E° denotes the E value in the absence of the metal ion in the system (E°=^ε HLo). […] The absorbance at the isosbestic point 401.4 nm shown in FIG. 1 gives εL.spsb.-.sbsb.a, so that the values of E and Eo, which are necessary for the plot, can be obtained experimentally.
(§4) Determination of the partition equilibrium system was made in a manner similar to that employed in Example 7. The concentrations [HL]t, [M^+ ]t, and [OH^- ] were 5.35×10^-5 M, 4×10^-3 M-2 M (as chloride), and 10^-2 M-10^-1 M (as potassium hydroxide), respectively. Chloroform was used as the organic medium.
(§5) In order to confirm the important assumption [La^- ]>>[HLa]+[MLa ], Eq.(11) (the left equation) was used for the evaluation of E instead of Eq.(15), which was derived from Eq.(11) under the assumption, and the obtained extraction constants compared with those obtained using Eq.(15). When Eq.(11) was applied, the species HLo and MLo in the organic layer were extracted into 0.1M hydrochloric acid as HLH^+, and the concentration of HLH+was determined spectrophotometrically and equated to [HLo ]+[MLo ]in Eq.(11). The extraction constants obtained in this way are […]

[3] = Determination of extraction constant KML^ex, sodium ion; format: physicochemical; details: for -log K^ex NaL (extraction constant): solvent chloroform
Description: as §1, §2, §3, §4, §5

[4] = Effect of sodium ion on lithium determination; format: physicochemical; details: 30-fold excess of sodium ions to lithium ions (Na+:Li+ weight ratio 30:1); versus Li+ alone; chloroform layer (Example 9: 400 nm)
Procedure: The effect of sodium ion in the system was determined in a procedure similar to that used in Example 7. A series of six round-bottomed flasks containing 5 ml of chloroform, and 5 ml of an aqueous solution containing aza-12-crown-4 reagent (6.7×10^-4 M), lithium chloride (1×10^-4 =0.694 μg ml^-1), and a variable amount of sodium chloride [sodium chloride was added to five of these flasks in 0.001M increments whereby the [NaCl]aq =1×10^-3 M to 5×10^-3 M (23 μg ml^-1 through 115 μg ml^-1); one flask served as a sodium-free blank]. Absorbance of the organic layer was measured on a spectrophotomer. The results are illustrated in FIG. 4.

[5] = Effect of organic solvents and bases on response to lithium and sodium ion; format: physicochemical
Procedure: Three solvents--chloroform, 1,2-dichloroethane and methylene chloride--werecompared using potassium hydroxide and sodium hydroxide as bases. […] At 0.1M hydroxide, however, large differences were observed both between the cations and between the organic solvents. […] The best stability of the absorbance after the separation of organic layer from the equilibrium system was also observed for this system.
Various other organic solvents were tested as organic media with a 0.01 M potassium hydroxide.

[6] = pH dependence of the structures; format: physicochemical
[7] = μ = 0.1 (CH3)4NCl; reported by Nakamura et al; cited from earlier work
[8] = cited from earlier work
[9] = solvent 1,2-dichloroethane; pH not specified; reported by Nakamura et al; cited from earlier work
[10] = obtained using Eq. (11), organic species back-extracted into 0.1M hydrochloric acid, chloroform

O=[N+]([O-])c1ccc(O)c(CN2CCOCCOCCOCC2)c1 [aza-12-crown-4, 1-(2-oxy-5-nitrobenzyl)-1-hydro-1-aza-4,7,10-trioxacyclododecane]
-log K1 (acid dissociation constant) [1]: 5.77
-log K2 (acid dissociation constant; pK2) [1]: 10.31
-log K^ex LiL (extraction constant) ([2]; 0.05M KOH): 10.23
-log K^ex LiL (extraction constant) ([2]; 0.1M KOH): 10.18
dependence of -log KLiL^ex on hydroxide concentration ([2]; 10^-2 M-10^-1 M KOH, chloroform): not significantly dependent on the hydroxide concentration employed
ratio of KLiL^ex to KNaL^ex (selectivity) ([2]; compared with aza-15-crown-5): much greater than the aza-15-crown5
KLiL^ex smaller than that of prior art aza-15-crown-5, factor ([2]; compared with prior art aza-15-crown-5): smaller by a factor of ten
-log KLiL^ex (extraction constant) [2, 10]: 10.25
-log K^ex NaL (extraction constant) ([3]; 0.05M KOH): 12.49
-log K^ex NaL (extraction constant) ([3]; 0.1M KOH): 12.50
-log KNaL^ex (extraction constant) [3, 10]: 12.47
increase in absorbance in presence of sodium ion [4]: 8%
sensitivity and interference differences between bases and solvents ([5]; 0.01 M hydroxide, chloroform, 1,2-dichloroethane, methylene chloride, KOH and NaOH): no significant sensitivity and interference differences were observed
sensitivity and sodium interference, bases and solvents ([5]; 0.1M hydroxide, chloroform, 1,2-dichloroethane, methylene chloride, KOH and NaOH): Potassium hydroxide gave higher sensitivity in both chloroform and methylene chloride than sodium hydroxide, but not in 1,2-dichloroethane; also recorded: Methylene chloride exhibited the highest sensitivity when used with potassium hydroxide, but was subject to increased interference by sodium ions; also recorded: The combination of methylene chloride and sodium hydroxide allowed most of the reagent to pass into the organic layer; also recorded: optimum combination of high sensitivity, low interference, and low blank absorption was achieved by a system employing 0.1M potassium hydroxide and chloroform
response / extraction by organic solvent ([5]; organic solvents tested with 0.01 M potassium hydroxide): no response of the reagent to lithium and sodium ion was observed; also recorded: Methyisobutyl-ketone showed only slight extraction of the metal complex; also recorded: No extraction occurred into benzene, carbon tetrachloride, chlorobenzene, and trichlorethylene
response with triethylamine as base ([5]; triethylamine 1M in CHCl3, compared with KOH): the response to lithium ions was smaller and the response to sodium ions was larger
response with triethylamine plus sodium hydroxide ([5]; triethylamine 1M in CHCl3 and sodium hydroxide 0.1M): intermediate response to lithium ions, and the response was not stable
pH at which the structure predominates ([6]; listed as iii): approximately 8

O=[N+]([O-])c1ccc(O)c(CN2CCOCCOCCOCCOCC2)c1 [aza-15-crown-5, N-(2-hydroxy-5-nitrobenzyl)-aza-15-crown-5]
-log K1 (acid dissociation constant) [7]: 5.79
-log K2 (acid dissociation constant) [7]: 9.69
-log K^ex LiL (extraction constant) ([8]; solvent 1,2-dichloroethane, pH not specified, reported by Nakamura et al): 9.15
-log K^ex NaL (extraction constant) [9]: 9.76

C1COCCN2CCOCCN(CCO1)CCOCC2 [cryptand [2,1,1]]
sensitivity to lithium ions ([8]; cryptand itself, without ion pairing agent): not sensitive to lithium ions
extraction of lithium ions compared with reagent of Nakamura et al ([8]; with ion pairing agent resazurin): more selectively and more efficiently

O=[N+]([O-])c1ccc(O)c(CN2CCOCCOCCOCC2)c1 [i, 1-(2-hydroxy-5-nitrobenzyl)-1-hydro-1-aza-4,7,10-trioxacyclododecane]
pH at which the structure predominates [6]: less than 5

O=[N+]([O-])c1ccc(O)c(CN2CCOCCOCCOCC2)c1 [ii, 1-(2-oxy-5-nitrobenzyl)1-aza-4,7,10-trioxacyclododecane]
pH at which the structure predominates [6]: greater than 11
